The values below come from patent publication US20160040215A1, “Methods for Pathogen Detection and Enrichment from Materials and Compositions” (priority 2013, published 2016).

Test [1] concerns viable cells of fecal suspension.
Test [2] has as its system M. morganii and P. pennerii isolates. In words: microbe, parasite or virus in culture. In kind it is cell-based.
The subject of test [3] is ethanol treated spores. In words: Germination of ethanol treated spores with germinants, CFU on plate media. Particulars: 2 ug/ml; plated on Sweet B or M2GSC media, single donor, FIG. 9.

In brackets after ≈: the same amount, converted by molar mass. Read-outs that look alike come from different tables or passages of the source.

As for `CCO` [Ethanol, ethanol], in test [1], the “reduction of the number of viable cells” value is recorded as “approximately 4 logs”. Take `C[C@@H](O)[C@H]1C(=O)N2C(C(=O)O)=C(SCCN=CN)C[C@H]12` [imipenem]: the MIC lay in the range of 4 to 8 µg/mL in test [2] and 2 to 4 µg/mL (≈ 6.68 to 13.4 µM) in test [2] (Morganella morganii). Take lysozyme: the “effect of addition to the plates on CFU, in words” value in test [3] is reported as “small effect”.
